According to publication PMC9603181, “RNA-Dependent RNA Polymerase of the Second Human Pegivirus Exhibits a High-Fidelity Feature” (Microbiology Spectrum, 2022):

Key:
Type in all cases: biochemical
[1] = molecular target: T1, HPgV-2 NS5B (HPgV-2 RdRp) (Human hepegivirus, UniProt A0A2L0ARU6); assay: two-step single-nucleotide-incorporation assay, time course, urea-PAGE, Stain-All; details: T30/pGG, CTP 500 uM as only step 2 substrate, Mg2+/Mn2+, pH 6.5, 30 C
T1 construct: NS5B residues 1-551 (QSYN to GASR) of the genome polyprotein, C-terminal truncation, C-terminal His6 tag kept, pET-26b, E. coli BL21(DE3)

HCV NS5B (HCV RdRp) [2] = molecular target: T2, HCV NS5B (HCV RdRp) (Orthohepacivirus hominis, UniProt A0A140D8J5); assay: as above; details: T30/pGG, CTP 500 uM as only step 2 substrate, no Mn2+, pH 6.5, 30 C
T2 construct: NS5B residues 1-570 (SMSY to ARFR) of the genome polyprotein, C-terminal truncation, C-terminal His6 tag kept, pET-26b, E. coli BL21(DE3)

HCV NS5B (HCV RdRp) [3] = molecular target: T2, HCV NS5B (HCV RdRp); assay: two-step single-nucleotide-incorporation assay, urea-PAGE, Stain-All; details: T32 RNA template, pGG primer, pH 6.5, 30 C; sof-TP dose response from 50 uM; UTP analogue, chain terminator

| SMILES | two-step single-nucleotide-incorporation assay, time course, urea-PAGE, Stain-Al [1] | two-step single-nucleotide-incorporation assay, time course, urea-PAGE, Stain-Al (HCV NS5B (HCV RdRp) [2]) | two-step single-nucleotide-incorporation assay, urea-PAGE, Stain-All (HCV NS5B (HCV RdRp) [3]) |
| --- | --- | --- | --- |
| Nc1ccn([C@@H]2O[C@H](COP(=O)(O)OP(=O)(O)OP(=O)(O)O)[C@@H](O)[C@H]2O)c(=O)n1 [CTP] | no significant difference in the synthesis of the correct P10 between HCV and HPgV-2 NS5B | no significant difference in the synthesis of the correct P10 between HCV and HPgV-2 NS5B |  |
| C[C@@]1(F)[C@H](O)[C@@H](COP(=O)(O)OP(=O)(O)OP(=O)(O)O)O[C@H]1n1ccc(=O)[nH]c1=O [PSI-7409] |  |  | a clear P9S band was observed in the presence of HCV NS5B |
